The conditions of data set [1]: cited from earlier work.
A short description of data set [2]: pharmacokinetics in the human body. It counts as in vivo. The settings on record: for accumulation: human. The source says: Serum levels reach steady state after about 2-3 weeks.
Therefore, […] is expected to exert physiological effects after temsirolimus has been cleared.

Another data set deals with VEGF receptor 3 (Homo sapiens, UniProt P35916). Conditions: cited from earlier work.
For data set [3] the following is noted: preclinical models; cited from earlier work.
The conditions of data set [4]: cited from earlier work. This is another data set of the same source.

Molecules are shown by their SMILES. Like-named read-outs stand apart in the source and are kept apart here.

Sequence of VEGF receptor 3 (P35916 25-1363): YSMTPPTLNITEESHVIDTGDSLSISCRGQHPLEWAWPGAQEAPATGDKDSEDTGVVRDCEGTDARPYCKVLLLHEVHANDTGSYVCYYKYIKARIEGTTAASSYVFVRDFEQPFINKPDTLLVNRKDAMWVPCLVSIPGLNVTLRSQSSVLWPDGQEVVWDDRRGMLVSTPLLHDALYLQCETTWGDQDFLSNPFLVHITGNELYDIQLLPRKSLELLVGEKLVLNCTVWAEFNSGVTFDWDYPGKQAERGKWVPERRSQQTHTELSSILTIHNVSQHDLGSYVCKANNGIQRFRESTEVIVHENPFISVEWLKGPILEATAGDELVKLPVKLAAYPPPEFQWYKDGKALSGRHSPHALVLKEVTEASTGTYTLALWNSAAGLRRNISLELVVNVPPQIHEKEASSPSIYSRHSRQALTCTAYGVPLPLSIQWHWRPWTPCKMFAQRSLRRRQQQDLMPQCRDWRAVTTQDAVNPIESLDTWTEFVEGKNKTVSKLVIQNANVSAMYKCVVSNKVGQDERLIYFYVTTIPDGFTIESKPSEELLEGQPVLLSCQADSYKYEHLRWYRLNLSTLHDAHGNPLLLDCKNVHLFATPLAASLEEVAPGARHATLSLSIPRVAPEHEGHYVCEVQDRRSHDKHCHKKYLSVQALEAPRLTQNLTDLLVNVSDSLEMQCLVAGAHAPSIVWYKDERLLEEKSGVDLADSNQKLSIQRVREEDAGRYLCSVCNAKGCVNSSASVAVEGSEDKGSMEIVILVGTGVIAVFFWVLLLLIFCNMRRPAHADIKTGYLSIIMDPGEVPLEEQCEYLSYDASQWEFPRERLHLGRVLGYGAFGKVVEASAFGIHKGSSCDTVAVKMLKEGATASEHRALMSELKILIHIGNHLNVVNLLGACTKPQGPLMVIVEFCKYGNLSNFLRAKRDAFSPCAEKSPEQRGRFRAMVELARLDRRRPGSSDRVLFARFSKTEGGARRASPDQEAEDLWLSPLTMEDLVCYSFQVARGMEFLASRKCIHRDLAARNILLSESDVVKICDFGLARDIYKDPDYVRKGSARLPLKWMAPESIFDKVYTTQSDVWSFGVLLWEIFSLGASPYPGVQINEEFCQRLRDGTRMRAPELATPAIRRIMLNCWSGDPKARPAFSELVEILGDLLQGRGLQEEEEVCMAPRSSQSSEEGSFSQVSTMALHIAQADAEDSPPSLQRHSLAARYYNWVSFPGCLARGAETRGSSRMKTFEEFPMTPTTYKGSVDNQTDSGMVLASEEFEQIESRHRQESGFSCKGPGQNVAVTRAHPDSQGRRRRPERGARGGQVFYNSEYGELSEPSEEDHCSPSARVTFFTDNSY

For the molecule `CO[C@H]1C[C@@H]2CC[C@@H](C)[C@@](O)(O2)C(=O)C(=O)N2CCCC[C@H]2C(=O)O[C@H]([C@H](C)C[C@@H]2CC[C@@H](O)[C@H](OC)C2)CC(=O)[C@H](C)/C=C(\C)[C@@H](O)[C@@H](OC)C(=O)[C@H](C)C[C@H](C)/C=C/C=C/C=C/1C` [sirolimus], in data set [1] (primary metabolite of temsirolimus), the “half-life relative to parent compound temsirolimus” value was “about three times that of the parent compound”.

In the case of `CO[C@H]1C[C@@H]2CC[C@@H](C)[C@@](O)(O2)C(=O)C(=O)N2CCCC[C@H]2C(=O)O[C@H]([C@H](C)C[C@@H]2CC[C@@H](OC(=O)C(C)(CO)CO)[C@H](OC)C2)CC(=O)[C@H](C)/C=C(\C)[C@@H](O)[C@@H](OC)C(=O)[C@H](C)C[C@H](C)/C=C/C=C/C=C/1C` [temsirolimus, 42-(3-hydroxy-2-(hydroxymethyl)-2-methylpropanoate) rapamycin], the accumulation entry in data set [2] was “does not appear to accumulate more than would be expected based on its half life”. Also, in data set [1] (human body), the half-life result is on record as “approximately 17 hours”.

Consider `COc1cc2nccc(Oc3ccc(NC(=O)Nc4cc(C)on4)c(Cl)c3)c2cc1OC` [tivozanib, N-{2-chloro-4-[(6,7-dimethoxy-4-quinolyl)oxy]-phenyl}-N′-(5-methyl-3-isoxazolyl)urea], for which the “time for serum levels to reach steady state” value in data set [2] (chronic dosing) was 2-3 weeks. For the same molecule, in data set [2], the accumulation entry was “accumulates in the serum after chronic dosing to a degree that would be expected based on its half-life”. Further, the half-life in data set [2] (serum, human body) was in the range of 91.2 to 113 h. In addition, on VEGF receptor 3, the inhibitory activity result was “picomolar inhibitory activity”. Moreover, the antitumor activity entry in data set [3] is recorded as “exhibits antitumor activity”. Moreover, the interim results in data set [4] (272-patient Phase 2 clinical trial) was “positive interim results”. For the same molecule, the “most common side effects” value in data set [4] (Phase 1 and Phase 2 clinical trials) was “hypertension and dysphonia”. In addition, the “dose at which safety had been established” value in data set [4] (previous trials, 4 weeks on, 2 weeks off or 3 weeks on, 1 week off) is 1.5 mg/day.
